Experimental findings from the supplement of paper PMC10627819 are described below.

Common to all, as to test: Bliss interaction score (quartile over a dose matrix) (fitness difference); higher = more antagonism (negative = synergy)
Assay [1] has as its system S. pneumoniae D39V. The procedure, abridged: (§1)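 Combination data were used to infer fitness under each single drug. Fitness is the OD595 at entry into stationary phase divided by the robust mean of the plate's no-drug wells, with a cap of 1. The Bliss score is the observed minus the expected product fitness, summarised by quartiles over technical, biological and donor/recipient replicates.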

The subject of assay [2] is B. subtilis 168. The procedure, abridged: as §1
Assay [3] relates to S. aureus Newman. The procedure, abridged: as §1
Assay [4] relates to S. aureus DSM 20231. Put shortly: as §1
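Also: first quartile when negative (synergy) and third quartile when positive (antagonism).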

Take `CN[C@@H]1[C@H](O[C@H]2[C@H](O[C@H]3[C@H](O)[C@@H](O)[C@H](N=C(N)N)[C@@H](O)[C@@H]3N=C(N)N)O[C@@H](C)[C@]2(O)C=O)O[C@@H](CO)[C@H](O)[C@H]1O` [Streptomycin] + Oc1cc(Cl)ccc1Oc1ccc(Cl)cc1Cl [Triclosan]: the Bliss interaction score in assay [1] is 0.0606; in assay [2] it was -0.249; in assay [3], -0.0312; in assay [4], -0.06.
As for `CN[C@H](CC(C)C)C(=O)N[C@H]1C(=O)N[C@@H](CC(N)=O)C(=O)N[C@H]2C(=O)N[C@H]3C(=O)N[C@H](C(=O)N[C@H](C(=O)O)c4cc(O)cc(O)c4-c4cc3ccc4O)[C@H](O[C@H]3C[C@](C)(N)[C@@H](O)[C@H](C)O3)c3ccc(c(Cl)c3)Oc3cc2cc(c3O[C@@H]2O[C@H](CO)[C@@H](O)[C@H](O)[C@H]2O[C@H]2C[C@](C)(NCc3ccc(-c4ccc(Cl)cc4)cc3)[C@@H](O)[C@H](C)O2)Oc2ccc(cc2Cl)[C@H]1O` [Oritavancin] + Cc1cc(NS(=O)(=O)c2ccc(N)cc2)no1 [Sulfamethoxazol], the Bliss interaction score in assay [1] was -0.0491; in assay [2], -0.0377; in assay [3], 0.0801; in assay [4], -0.0575.
On to `CC[C@H]1OC(=O)[C@H](C)[C@@H](O[C@H]2C[C@@](C)(OC)[C@@H](O)[C@H](C)O2)[C@H](C)[C@@H](O[C@@H]2O[C@H](C)C[C@H](N(C)C)[C@H]2O)[C@](C)(O)C[C@@H](C)C(=O)[C@H](C)[C@@H](O)[C@]1(C)O` [Erythromycin] + CCCCCCCCCC(=O)N[C@@H]1[C@H]([C@@H]([C@H](O[C@H]1OC2=C3C=C4C=C2OC5=C(C=C(C=C5)[C@H]([C@H]6C(=O)N[C@@H](C7=C(C(=CC(=C7)O)OC8[C@H]([C@H]([C@@H]([C@H](O8)CO)O)O)O)C9=C(C=CC(=C9)[C@H](C(=O)N6)NC(=O)[C@@H]4NC(=O)[C@@H]1C2=CC(=CC(=C2)OC2=C(C=CC(=C2)[C@H](C(=O)N[C@H](CC2=CC(=C(O3)C=C2)Cl)C(=O)N1)N)O)O)O)C(=O)O)O[C@H]1[C@@H]([C@H]([C@@H]([C@H](O1)CO)O)O)NC(=O)C)Cl)CO)O)O [Teicoplanin], for which the Bliss interaction score was 0.0581 in assay [1] (main component drawn), -0.046 in assay [2] (main component drawn), 0.154 in assay [3] (main component drawn) and 0.0621 in assay [4] (main component drawn).
On to `CC[C@H]1OC(=O)[C@H](C)[C@@H](O[C@H]2C[C@@](C)(OC)[C@@H](O)[C@H](C)O2)[C@H](C)[C@@H](O[C@@H]2O[C@H](C)C[C@H](N(C)C)[C@H]2O)[C@](C)(O)C[C@@H](C)C(=O)[C@H](C)[C@@H](O)[C@]1(C)O` [Erythromycin] + CN[C@@H]1[C@H](O)[C@H](NC)[C@H]2O[C@@]3(O)C(=O)C[C@@H](C)O[C@H]3O[C@@H]2[C@H]1O [Spectinomycin], for which the Bliss interaction score in assay [1] is -0.0547; in assay [2] it was -0.093; in assay [3] it was -0.172; in assay [4] it was -0.0696.
In the same order, the values of `CC[C@H]1OC(=O)[C@H](C)[C@@H](O[C@H]2C[C@@](C)(OC)[C@@H](O)[C@H](C)O2)[C@H](C)[C@@H](O[C@@H]2O[C@H](C)C[C@H](N(C)C)[C@H]2O)[C@](C)(O)C[C@@H](C)C(=O)[C@H](C)[C@@H](O)[C@]1(C)O` [Erythromycin] + C[C@@H]1O[C@@H]1P(=O)(O)O [Fosfomycin] are 0.0627, 0.116, -0.073 and -0.0365.
In the same order, the values of `CO[C@@H]1[C@@H](OC(N)=O)[C@@H](O)[C@H](Oc2ccc3c(O)c(NC(=O)c4ccc(O)c(CC=C(C)C)c4)c(=O)oc3c2C)OC1(C)C` [Novobiocin] + Cn1nnc(-c2ccc(-c3ccc(N4C[C@H](CO)OC4=O)cc3F)cn2)n1 [Tedizolid] are -0.131, 0.0533, -0.0571 and -0.0789.
Turning to `CO[C@@H]1[C@@H](OC(N)=O)[C@@H](O)[C@H](Oc2ccc3c(O)c(NC(=O)c4ccc(O)c(CC=C(C)C)c4)c(=O)oc3c2C)OC1(C)C` [Novobiocin] + CC1(C)S[C@@H]2[C@H](NC(=O)Cc3ccccc3)C(=O)N2[C@H]1C(=O)O [PenicillinG], the Bliss interaction score is -0.0976 in assay [1], 0.0716 in assay [2], -0.0408 in assay [3] and -0.0356 in assay [4].
For `CN[C@H](CC(C)C)C(=O)N[C@H]1C(=O)N[C@@H](CC(N)=O)C(=O)N[C@H]2C(=O)N[C@H]3C(=O)N[C@H](C(=O)N[C@H](C(=O)O)c4cc(O)cc(O)c4-c4cc3ccc4O)[C@H](O[C@H]3C[C@](C)(N)[C@@H](O)[C@H](C)O3)c3ccc(c(Cl)c3)Oc3cc2cc(c3O[C@@H]2O[C@H](CO)[C@@H](O)[C@H](O)[C@H]2O[C@H]2C[C@](C)(NCc3ccc(-c4ccc(Cl)cc4)cc3)[C@@H](O)[C@H](C)O2)Oc2ccc(cc2Cl)[C@H]1O` [Oritavancin] + CC[C@H]1OC(=O)[C@H](C)C(=O)[C@H](C)[C@@H](O[C@@H]2O[C@H](C)C[C@H](N(C)C)[C@H]2O)[C@](C)(OC)C[C@@H](C)C(=O)[C@H](C)[C@H]2N(CCCCn3cnc(-c4cccnc4)c3)C(=O)O[C@]12C [Telithromycin] the same measures were 0.0281, 0.0211, -0.0486 and -0.0333.
`CO[C@@]12[C@H](COC(N)=O)C3=C(C(=O)C(C)=C(N)C3=O)N1C[C@@H]1N[C@@H]12` [MitomycinC] + C[n+]1ccc(-c2cc[n+](C)cc2)cc1 [Paraquat]: the Bliss interaction score was -0.0446 in assay [1], 0.0434 in assay [2], 0.04 in assay [3] and -0.0406 in assay [4].
For the molecule `CN[C@H](CC(C)C)C(=O)N[C@H]1C(=O)N[C@@H](CC(N)=O)C(=O)N[C@H]2C(=O)N[C@H]3C(=O)N[C@H](C(=O)N[C@H](C(=O)O)c4cc(O)cc(O)c4-c4cc3ccc4O)[C@H](O[C@H]3C[C@](C)(N)[C@@H](O)[C@H](C)O3)c3ccc(c(Cl)c3)Oc3cc2cc(c3O[C@@H]2O[C@H](CO)[C@@H](O)[C@H](O)[C@H]2O[C@H]2C[C@](C)(NCc3ccc(-c4ccc(Cl)cc4)cc3)[C@@H](O)[C@H](C)O2)Oc2ccc(cc2Cl)[C@H]1O` [Oritavancin] + Cc1onc(-c2ccccc2)c1C(=O)N[C@@H]1C(=O)N2[C@@H]1SC(C)(C)[C@@H]2C(=O)O [Oxacillin], the Bliss interaction score in assay [1] is -0.167; in assay [2] it was 0.0256; in assay [3], -0.0656; in assay [4], -0.0461.
For `CC[C@H]1OC(=O)[C@H](C)[C@@H](O[C@H]2C[C@@](C)(OC)[C@@H](O)[C@H](C)O2)[C@H](C)[C@@H](O[C@@H]2O[C@H](C)C[C@H](N(C)C)[C@H]2O)[C@](C)(O)C[C@@H](C)C(=O)[C@H](C)[C@@H](O)[C@]1(C)O` [Erythromycin] + CN1C2=CC=CC=C2N=C3C1=CC=CC3=O [Pyocyanin] the same measures were -0.0454, 0.0449, -0.051 and -0.0317.
